Reference: patent publication US5886190A, “Rapid synthesis and use of 18F-fluoromisonidazole and analogs” (priority 1997, dated 1999)
Several values for one entry are separate records, joined by “and”; a condition that tells them apart may be missing. Equal entries are not always repeated. Where two headings read alike, the source gives them in different places.

How the values were obtained:
cancer of the pharynx = conditions: cited from earlier work; for Radiosensitizer potency: human, in vivo; for Clinical benefit on addition: patients with high hemoglobin levels and cancer of the pharynx
patients = conditions: cited from earlier work; for Dose-limiting toxicity: clinical trials
[1] = in mice; cited from earlier work
[2] = system: mammary tumor cells (13762 tumor cell line); conditions: for Tumor/blood count density ratio / Tumor/liver count density ratio / Tumor/muscle count density ratio / Blood, percent of injected dose/gram weight / Bone, percent of injected dose/gram weight / Kidney, percent of injected dose/gram weight / Liver, percent of injected dose/gram weight / Lung, percent of injected dose/gram weight / Muscle, percent of injected dose/gram weight / Spleen, percent of injected dose/gram weight / Tumor, percent of injected dose/gram weight: 10 μCi/rat iv, N = 3
Protocol: (§1) The synthesis scheme for [^18 F]FETNIM is depicted in FIG. 6. Biodistribution studies of [^18 F]FETNIM were performed at 1, 2 and 4 hours in mammary tumor-bearing rats (10 μCi, iv, N=3/time interval). Autoradiograms were performed at 1 hour postinjection of [^18 F]FETNIM, and a comparison has been made with [^18 F]fluoromisonidazole (FMISO). Intratumoral oxygen tension measurements were performed using the Eppendorf computerized histographic system. Twenty to twenty-five pO2 measurements along each of 2 to 3 linear tracks were performed at 0.4 mm intervals on each tumor. PET imaging studies of [^18 F]FETNIM were performed in rabbits bearing V2 tumors (N=3, 4 mCI, iv) which were located on the right leg.
Female Fischer 344 rats (250-275 g) (Harlan, Inc., Indianapolis, Ind.) were inoculated with mammary tumor cells in the lumbar area using a 13762 tumor cell line (s.c. 10^5 cells/rat). […] Three groups of rats (N=3/group) were anesthetized with ketamine (10-15 mg/rat). The ^18 F-FETNIM reconstituted in 5% ethanol/saline was given to rats (10 μCi/rat, iv) and tissue distribution was conducted at 1h, 2h and 4h intervals. The tissues were excised, weighed and counted for radioactivity. The percent of injected dose per gram of tissue weight was determined.

mammary tumor = assay: Autoradiographic studies in tumor-bearing rats; conditions: 1 hour postinjection
Protocol: as §1
Female Fischer 344 mammary tumor-bearing rats (n=3) after receiving [^18 F]FETNIM (2 mCi, iv) were sacrificed at 1 h. […] The rats were sacrificed at 1 hour postinjection. The rat body was fixed in a carboxymethyl cellulose (4%) block. The frozen body in a block was mounted to a cryostat (LKB 2250 cryo-microtome, Ijamsville, Md.) and 40 μm coronal sections were made. The section was freeze dried, then mounted on a x-ray film (X-Omat AR, Kodak, Rochester, N.Y.) for 24 hours.

hypoxic cells = assay: Selectivity to hypoxic cells (PET imaging, autoradiograms, biodistribution); conditions: in vivo
Protocol: as §1
PET imaging was performed with a positron camera (Positron Corporation, Houston, Tex.). The tomograph has a field-of-view of 42 cm on transverse and 12 cm on coronal planes. The axial resolution on the reconstructed plane is 1.2 cm. […]
Female Fischer 344 rats (250-275 g) (Harlan, Inc., Indianapolis, Ind.) were inoculated with mammary tumor cells in the lumbar area using a 13762 tumor cell line (s.c. 10^5 cells/rat). […] The tissues were excised, weighed and counted for radioactivity. The percent of injected dose per gram of tissue weight was determined.

VX2 tumor = conditions: 4 mCi; 1 hour postinjection
Protocol: as §1
PET imaging was performed with a positron camera (Positron Corporation, Houston, Tex.). The tomograph has a field-of-view of 42 cm on transverse and 12 cm on coronal planes. The axial resolution on the reconstructed plane is 1.2 cm.
Three male New Zealand white rabbits each weighing 3 kg were inoculated at a single site in the right buttock area with a 0.5 ml suspension of minced VX2 tumor fragments (10^6 cells/rabbit). The tumors are maintained through serial animal passage and are available from the Department of Veterinary Medicine (The University of Texas M.D. Anderson Cancer Center, Houston, Tex.). […]

[3] = Hydrophilicity (from autoradiogram and chemistry); format: physicochemical; conditions: relative to comparator named in value
[4] = 1 hour, listed as [^18 F] Fluoroerythronitroimidazole
[5] = 2 hour, listed as [^18 F] Fluoroerythronitroimidazole
[6] = 4 hour, listed as [^18 F] Fluoroerythronitroimidazole

COCC(O)Cn1ccnc1[N+](=O)[O-] (centres unmarked) [misonidazole]
Radiosensitizer potency (cancer of the pharynx): potent radiosensitizers | Clinical benefit on addition (cancer of the pharynx): great benefit | Dose-limiting toxicity (patients): peripheral neuropathy that progressed to central nervous system toxicity if drug administration was not stopped | Most common side effect (patients; human, in vivo): peripheral sensory neuropathy of the hands and feet | Toxicity after large single doses (patients; large single doses): convulsions | Toxicity following small multiple doses (patients; small multiple doses): encephalopathies | Dose which affects the neurotransmitter system [1]: 0.76 mg/g

O=C(Cn1ccnc1[N+](=O)[O-])NCCO [etanidazole]
Radiosensitizer potency (cancer of the pharynx): potent radiosensitizers | Clinical benefit on addition (cancer of the pharynx): great benefit | Dose-limiting toxicity (patients): peripheral neuropathy that progressed to central nervous system toxicity if drug administration was not stopped

O=[N+]([O-])c1nccn1C[C@H](O)[C@H](O)CF [[^18 F]FETNIM, [^18 F]fluoroerythro-2-nitroimidazole]
Tumor/muscle, tumor/blood and tumor/liver count density ratios, change with time ([2]; 1, 2 and 4 h): showed increases with time | Tumor/blood count density ratio ([2]; 1 hour): 2.29±0.599 | Tumor/liver count density ratio ([2]; 1 hour): 1.7600 ± 0.4415 | Tumor/muscle count density ratio ([2]; 1 hour): 0.66±0.267 | Tumor/blood count density ratio [2, 4]: 2.2900 ± 0.5994 | Tumor/muscle count density ratio [2, 4]: 0.6602 ± 0.2666 | Tumor/blood count density ratio ([2]; 2 hour): 2.41±0.567 | Tumor/liver count density ratio ([2]; 2 hour): 1.7700 ± 0.2561 | Tumor/muscle count density ratio ([2]; 2 hour): 2.11±0.347 | Tumor/blood count density ratio [2, 5]: 2.4100 ± 0.5672 | Tumor/muscle count density ratio [2, 5]: 2.1100 ± 0.3468 | Tumor/blood count density ratio ([2]; 4 hour): 8.0±2.42 and 8.02±2.420 | Tumor/liver count density ratio ([2]; 4 hour): 4.3300 ± 1.31 | Tumor/muscle count density ratio ([2]; 4 hour): 5.92±2.240 | Tumor/blood count density ratio [2, 6]: 8.0200 ± 2.42 | Tumor/muscle count density ratio [2, 6]: 5.9200 ± 2.24 | Blood, percent of injected dose/gram weight ([2]; 1 hour): 0.3493 ± 0.02173% of Injected Dose/Gram Weight | Blood, percent of injected dose/gram weight ([2]; 2 hour): 0.1950 ± 0.02828% of Injected Dose/Gram Weight | Blood, percent of injected dose/gram weight ([2]; 4 hour): 0.0993 ± 0.01266% of Injected Dose/Gram Weight | Bone, percent of injected dose/gram weight ([2]; 1 hour): 0.2570 ± 0.14% of Injected Dose/Gram Weight | Bone, percent of injected dose/gram weight ([2]; 2 hour): 0.0810 ± 0.00424% of Injected Dose/Gram Weight | Bone, percent of injected dose/gram weight ([2]; 4 hour): 0.0753 ± 0.0157% of Injected Dose/Gram Weight | Kidney, percent of injected dose/gram weight ([2]; 1 hour): 0.8860 ± 0.00424% of Injected Dose/Gram Weight | Kidney, percent of injected dose/gram weight ([2]; 2 hour): 0.5145 ± 0.02334% of Injected Dose/Gram Weight | Kidney, percent of injected dose/gram weight ([2]; 4 hour): 0.4663 ± 0.06866% of Injected Dose/Gram Weight | Liver, percent of injected dose/gram weight ([2]; 1 hour): 0.4530 ± 0.01493% of Injected Dose/Gram Weight | Liver, percent of injected dose/gram weight ([2]; 2 hour): 0.3123 ± 0.08225% of Injected Dose/Gram Weight | Liver, percent of injected dose/gram weight ([2]; 4 hour): 0.1843 ± 0.02458% of Injected Dose/Gram Weight | Lung, percent of injected dose/gram weight ([2]; 1 hour): 0.3577 ± 0.00723% of Injected Dose/Gram Weight | Lung, percent of injected dose/gram weight ([2]; 2 hour): 0.2107 ± 0.05713% of Injected Dose/Gram Weight | Lung, percent of injected dose/gram weight ([2]; 4 hour): 0.1027 ± 0.02122% of Injected Dose/Gram Weight | Muscle, percent of injected dose/gram weight ([2]; 1 hour): 1.2600 ± 0.08627% of Injected Dose/Gram Weight | Muscle, percent of injected dose/gram weight ([2]; 2 hour): 0.2670 ± 0.09036% of Injected Dose/Gram Weight | Muscle, percent of injected dose/gram weight ([2]; 4 hour): 0.1377 ± 0.01893% of Injected Dose/Gram Weight | Spleen, percent of injected dose/gram weight ([2]; 1 hour): 0.3183 ± 0.02011% of Injected Dose/Gram Weight | Spleen, percent of injected dose/gram weight ([2]; 2 hour): 0.2013 ± 0.05918% of Injected Dose/Gram Weight | Spleen, percent of injected dose/gram weight ([2]; 4 hour): 0.0953 ± 0.01401% of Injected Dose/Gram Weight | Tumor, percent of injected dose/gram weight ([2]; 1 hour): 0.7957 ± 0.2036% of Injected Dose/Gram Weight | Tumor, percent of injected dose/gram weight ([2]; 2 hour): 0.5516 ± 0.1582% of Injected Dose/Gram Weight | Tumor, percent of injected dose/gram weight ([2]; 4 hour): 0.8113 ± 0.3377% of Injected Dose/Gram Weight | Tumor visualization by autoradiography (mammary tumor; 2 mCi iv): the tumor could be visualized 1 hour postinjection | Uptake in the center region of the tumor (mammary tumor; 2 mCi iv): lack of uptake | Uptake in intestines and colon (mammary tumor): high uptake | Uptake in medullary of the kidney area (mammary tumor): higher uptake | Differentiation of hypoxic versus necrotic regions in the tumor (mammary tumor; autoradiogram): could differentiate hypoxic versus necrotic regions in the tumor | Selectivity to hypoxic cells (hypoxic cells): selective to hypoxic cells | SUV value of the tumor (VX2 tumor): greater than 10 | Hydrophilicity [3]: more hydrophilic than [^18 F]FMISO | Hydrophilicity ([3]; listed as [^18 F]fluoroerythronitroimidazole): more hydrophilic than misonidazole
